Experimental data: paper PMC11286609, “In vitro and in vivo analyses of eFAP: a novel FAP-targeting small molecule for radionuclide theranostics and other oncological interventions” (EJNMMI Radiopharmacy and Chemistry, 2024)

Assays:
[1] = Stability in PBS at 37 °C (radio-HPLC / LC-MS); type: physicochemical; conditions: % intact labeled ligand, 37 °C
Experimental: (§1) For the stability assessment of eFAP-6, [^111In]In-eFAP-6 or [^177Lu]Lu-eFAP-6 (~ 3–7 MBq, 20 µL) was mixed with 180 µL of PBS (0.01 M, pH 7.4) and incubated at 37 °C for up to 24 h. A sample of the PBS solution was directly injected on the radio-HPLC at 1, 4, and 24 h after incubation. Additionally, [^111In]In-eFAP-6 and [^177Lu]Lu-eFAP-6 (5–15 MBq, 50 µL) were incubated with 350 µL of commercially acquired mouse or human serum (Biolegend; San Diego, CA, USA) at 37 °C for up to 24 h. Following 1, 4, and 24 h of incubation, 50 µL of the solution were mixed with 50 µL of acetonitrile in an Eppendorf tube, and centrifuged at 5000× g for 20 min. The supernatant was then analyzed by radio-HPLC. Stability studies of eFAP-7 were performed by incubation of eFAP-7 (50 µL, 10^− 4 M) in 450 µL PBS or serum at 37 °C for up to 24 h. After 1, 4, and 24 h of incubation, 50 µL of the PBS incubation solution were directly analyzed by liquid chromatography-mass spectrometry (LC-MS), while 50 µL of the serum solution was mixed with 50 µL of acetonitrile in an Eppendorf tube, and centrifuged at 5000× g for 20 min, followed by LC-MS analyses.

[2] = Stability in mouse serum at 37 °C (radio-HPLC / LC-MS); type: in vitro ADME; conditions: % intact labeled ligand, mouse serum, 37 °C
Experimental: as §1

[3] = Stability in human serum at 37 °C (radio-HPLC / LC-MS); type: in vitro ADME; conditions: % intact labeled ligand, human serum, 37 °C
Experimental: as §1

[4] = LogD7.4 shake-flask method (n-octanol/PBS); type: physicochemical; conditions: n-octanol/PBS (1:1 v/v); n-octanol/PBS pH 7.4, shake-flask
Experimental: The distribution coefficients (LogD7.4) were determined using a shake-flask method, in which 2 µL (~ 0.5 MBq) of [^111In]In-eFAP-6 or 10 µL of eFAP-7 (10^− 4 M) was added to an Eppendorf tube containing 1 mL of PBS (0.01 M, pH 7.4) and n-octanol (v/v, 1:1). After vigorous vortexing, the solution was centrifuged at 2500× g for 15 min for phase separation. For radiolabeled eFAP-6, samples (3 × 10 µL) of the octanol and aqueous phases were taken out and measured in a 1480 Wizard automatic γ-counter (PerkinElmer; Groningen, The Netherlands). LogD7.4 values were calculated by using the following equation: LogD7.4 = log [(counts in octanol phase)/(counts in aqueous phase)]. For eFAP-7, samples (50 µL) of the octanol and aqueous phases were taken out and measured by LC-MS. LogD7.4 values were calculated by using the following equation: LogD7.4 = log [(area in octanol phase)/(area in aqueous phase)].

HT1080-huFAP cells = assay: Confocal microscopy of fluorescent tracer uptake, HT1080-huFAP; type: cell-based, human
Experimental: (§2) Cell experiments were performed with the human sarcoma HT1080 cell line, stably transduced with human FAP (HT1080-huFAP) which were kindly provided by Prof. Dr. Uwe Haberkorn from the University of Heidelberg. The wild type HT1080 (ATTC), hereafter HT080-WT, was used as a negative control. Additionally, the pancreatic stellate cells PS-1, obtained from Queen Mary University, were used as an endogenously FAP expressing cell line. HT1080-huFAP and HT1080-WT cells were cultured in DMEM Glutamax© (Gibco; Breda, The Netherlands) and the PS-1 cells were cultured in RPMI (Gibco). Both media were supplemented with 10% FBS (Gibco), 100 UI/mL penicillin, and 100 µg/mL streptomycin (Merck Life Science NV; Amsterdam, The Netherlands). All cell lines were regularly passaged at 80% confluence and cultured at 37 °C, 5% CO2.
(§3) Fluorescent tracer uptake was analyzed on HT1080-huFAP, HT1080-WT, and PS-1 cells. One day prior to the assay 280,000 HT1080-huFAP, 300,000 HT1080-WT, and 460,000 PS-1 cells were seeded on […] coverslips in a 6-well plate. […] Cells incubated only in medium were taken along to correct for auto-fluorescence. […] Analyses were performed in Fiji (Schindelin et al. [2012]) and were subjected to a custom-made macro to correct for auto-fluorescence signal. […]

PS-1 cells = assay: Confocal microscopy of fluorescent tracer uptake, PS-1; type: cell-based
Experimental: as §2, §3

HT1080-WT cells = assay: Confocal microscopy of fluorescent tracer uptake, HT1080-WT; type: cell-based, human; conditions: HT1080-WT (FAP-negative control), 1 nM
Experimental: as §2, §3

SMILES: CN1/C(=C/C=C/C=C/C2=[N+](CCCCCC(=O)NCCCOc3cccc4c(C(=O)NCC(=O)N5CC(F)(F)C[C@H]5C#N)ccnc34)c3ccc(S(=O)(=O)[O-])cc3C2(C)C)C(C)(C)c2cc(S(=O)(=O)O)ccc21 [eFAP-7, 1-(6-((3-((4-((2-((S)-2-cyano-4,4-difluoropyrrolidin-1-yl)-2-oxoethyl)carbamoyl)quinolin-8-yl)oxy)propyl)amino)-6-oxohexyl)-3,3-dimethyl-5-sulfo-2-((1E,3E)-5-((E)-1,3,3-trimethyl-5-sulfoindolin-2-ylidene)penta-1,3-dien-1-yl)-3H-indol-1-ium]
- Stability (% ± SD) PBS 1 h ([1]; 1 h): 99.5 ± 0.5%
- Stability (% ± SD) PBS 4 h ([1]; 4 h): 99.2 ± 0.7%
- Stability (% ± SD) PBS 24 h ([1]; 24 h): 99.1 ± 0.1%
- Stability (% ± SD) Mouse serum 1 h ([2]; 1 h): 85.0 ± 3.3%
- Stability (% ± SD) Mouse serum 4 h ([2]; 4 h): 83.2 ± 4.1%
- Stability (% ± SD) Mouse serum 24 h ([2]; 24 h): 76.2 ± 7.1%
- Stability (% ± SD) Human serum 1 h ([3]; 1 h): 87.6 ± 0.9%
- Stability (% ± SD) Human serum 4 h ([3]; 4 h): 87.9 ± 2.3%
- Stability (% ± SD) Human serum 24 h ([3]; 24 h): 85.5 ± 2.1%
- logD [4]: -0.94 ± 0.26
- sCy5 signal with an excess of UAMC-1110 (HT1080-huFAP cells; 1 nM tracer + 1 mM UAMC-1110): almost no visible signal
- sCy5 signal (uptake) in cells (HT1080-huFAP cells; 1 nM, 15 and 45 min of incubation): a clear signal was visible
- sCy5 signal with an excess of UAMC-1110 (PS-1 cells; PS-1, 1 nM tracer + 1 mM UAMC-1110): almost no visible signal
- uptake in PS-1 cells relative to HT1080-huFAP (PS-1 cells; PS-1, 1 nM, 15 and 45 min): visibly lower than for HT1080-huFAP
- uptake in HT1080-WT cells (HT1080-WT cells): no uptake was observed
